In ChEMBL document CHEMBL3301546, “MMV Malaria Box yeast growth screening”:

Assays:
Assay type in all cases: functional
Saccharomyces cerevisiae [1] = assay: (§1) MMV: Growth assays were conducted using the prototrophic S. cerevisiae strain JHY222. Each MMV compound (0.1 mM) was tested in rich media containing dextrose as a carbon source (Yeast Extract, Peptone, Dextrose; YPD). The growth rate in the presence of each MMV compound was calculated as follows: (i) the first 10 OD readings were averaged and subtracted from all OD readings of the corresponding curve to set the baseline of the growth curve to zero, and (ii) the area under the curve (AUC) was then calculated as the sum of all OD readings. […] A relative growth value was calculated as follows: AUC(DRUG) - AUC(DMSO)/AUC(DMSO); where AUC(DMSO) represents growth measured in a DMSO control well that was on the same microtiter plate of the drug-treated culture.
Saccharomyces cerevisiae [2] = assay: as §1, with “minimal” for “rich”, “Nitrogen Base,” for “Extract, Peptone,”, “YNBD).” for “YPD).”
Saccharomyces cerevisiae [3] = assay: as §1, with “minimal” for “rich”, “ethanol and glycerol” for “dextrose”, “as” for “as a”, “sources” for “source”, “Nitrogen Base, Ethanol, Glycerol; YNBEG).” for “Extract, Peptone, Dextrose; YPD).”

| SMILES | Relative Growth (Saccharomyces cerevisiae [1]) | Relative Growth (Saccharomyces cerevisiae [2]) | Relative Growth (Saccharomyces cerevisiae [3]) |
| --- | --- | --- | --- |
| COc1ccc(-c2c(C)nn3c(N)c(C#N)cnc23)cc1OC | -0.0311 | -0.0079 | -0.7097 |
| OCCNc1nc(Nc2ccc(Cl)c(Cl)c2)nc2ccccc12 | 0.0231 | -0.1441 | 0.0602 |
| CC1=C(CC(=O)c2cccc([N+](=O)[O-])c2)C(=O)c2ccccc2C1=O | -0.9318 | -1.0109 | -1.022 |
| Cl.OC(CNCc1ccccc1)Cn1c2ccccc2c2ccccc21 (centres undefined) | -0.0131 | 0.0554 | 0.03 |
| CCOC(=O)c1c(C)n(-c2ccc(Cl)cc2)c2ccc(OC(=O)C=Cc3ccccc3)cc12 | -0.0067 | 0.0402 | 0.0277 |
| COc1cc(OC)c(N(C)C(=O)c2cc3c(s2)-c2ccccc2S(=O)(=O)C3)cc1Cl | -0.2124 | -0.1342 | -0.2428 |
| O=C(Nc1ccc(Cl)c(Cl)c1)Nc1ccc(Cl)c(Cl)c1 | -0.0117 | 0.0087 | 0.0859 |
| COc1ccc(OC)c(C2C3=C(CC(C)(C)CC3=O)N(c3ccc(Cl)c(Cl)c3)C3=C2C(=O)CC(C)(C)C3)c1 | -0.0143 | -0.0153 | -0.1129 |
| COc1ccc(CNC2CCN(c3ccc(NC(=O)c4cccc(Cl)c4)cc3)CC2)cc1OC | -0.0405 | 0.0343 | -0.0282 |
| CCOC(=O)C1=C(c2ccccc2)N=c2sc(=Cc3cc(C)n(-c4ccc(F)cc4)c3C)c(=O)n2C1c1cccc(OC)c1OC (centres undefined) | -0.0436 | 0.0967 | 0.1067 |
| COc1cc(C(=O)Nc2nc3c(cc4c5c(cccc53)CC4)s2)cc(OC)c1OC | 0.0021 | -0.1254 | -0.0592 |
| CN1C=C(c2ccc3ccccc3n2)C(c2c[nH]c3ccccc23)c2ccccc21 (centres undefined) | -0.6873 | 0.0287 | -0.048 |
| CCN1CCN(c2c(C(=O)c3ccccc3)cnc3cc(OC)c(OC)cc23)CC1 | -0.0459 | 0.0169 | -0.2869 |
| Cc1sc(NC(=O)c2ccco2)c(C(c2cccnc2)N2CCC(Cc3ccccc3)CC2)c1C (centres undefined) | -0.0153 | 0.0125 | 0.0498 |
| FC(F)(F)c1cccc(Nc2nc(-c3ccccc3)nc3ncccc23)c1 | 0.1402 | -0.0599 | -0.0611 |
| CCOC(=O)C1CCN(C(=O)CN2C(=O)c3ccccc3C2c2c[nH]c3ccccc23)CC1 (centres undefined) | -1.0024 | -0.2514 | -0.5143 |
| COc1ccc(C(=O)NC(c2ccc(Cl)cc2Cl)c2cc(Cl)c3cccnc3c2O)cc1 (centres undefined) | 0.0373 | -0.2517 | -0.3135 |
| FC(F)(F)c1ccc(Nc2nnnc3ccccc23)cc1 | -0.97 | -0.0492 | 0.0852 |
| CCOC(=O)C1=C(C)N=c2sc(=Cc3cc(Cl)ccc3O)c(=O)n2C1c1ccc(OC)cc1 (centres undefined) | -0.1268 | 0.1077 | 0.0816 |
| CN(N=O)C1=C(NC2CCCCC2)C(=O)c2ccccc2C1=O | -0.04 | -0.0674 | -0.7745 |
| COc1ccc(NC(=O)C2c3ccccc3C(=O)N(CC(C)C)C2c2cccs2)cc1Cl (centres undefined) | -0.1808 | 0.0154 | -0.0036 |
| O=c1nc(C=Cc2ccc(Cl)cc2)oc2ccccc12 | 0.0204 | 0.0988 | 0.0415 |
| CCc1ccc(Nc2cc(C)c3ccc(O)cc3n2)cc1.Cl | -0.0071 | 0.1514 | 0.0748 |
| OC(Cn1nnc2ccccc21)Cn1c2ccc(Br)cc2c2cc(Br)ccc21 (centres undefined) | 0.0859 | 0.0887 | 0.1229 |
| O=C(Nc1ccc(Cl)cc1C(=O)Nc1ccncc1)c1ccc(Cl)cc1Cl | 0.0512 | 0.0109 | -0.1824 |
| Cc1cc(C=C2SC(=Nc3ccccc3)N(C3CCCC3)C2=O)c(C)n1-c1ccc(Cl)cc1 | 0.0207 | -0.1823 | -0.2078 |
| CCN1CCN(c2cc(C)c3cc(NC(=O)c4ccc(OC)c(OC)c4)ccc3n2)CC1 | -0.0203 | -0.0518 | -0.0282 |

| SMILES | Relative Growth (Saccharomyces cerevisiae [1]) | Relative Growth (Saccharomyces cerevisiae [2]) | Relative Growth (Saccharomyces cerevisiae [3]) |
| --- | --- | --- | --- |
| CCC(O)c1ccc(Br)cc1NC(=O)c1cccc(Cl)c1 (centres undefined) | 0.0228 | 0.0885 | 0.102 |
| CC1CC(C)CN(C(=O)c2ccc(Cl)cc2Cl)C1 (centres undefined) | 0.0159 | -0.0098 | -0.0083 |
| CC(C)(C)c1ccc(O)c(CNC2CCCCC2)c1 | -0.013 | 0.1031 | -0.0737 |
| CCOc1ccc2nc(C)cc(Nc3ccc(Br)cc3)c2c1 | 0.0466 | -0.9176 | 0.014 |
| COc1ccc(C2C(C(=O)Nc3cccc(OC)c3)c3ccccc3C(=O)N2C2CCCCC2)cc1 (centres undefined) | -0.0663 | 0.0321 | -0.1595 |
| c1ccc(/C2=N/c3ccccc3/N=C(/c3ccccc3)c3ccccc32)cc1 | -0.0437 | -0.0429 | -0.1082 |
| CC(=O)c1sc(NC(=O)Nc2ccc(C)cc2C)nc1C | -0.0731 | -0.0182 | 0.0857 |
| CCOC(=O)C1=C(C)N=c2sc(=Cc3ccccc3O)c(=O)n2C1c1ccc(OC)c2ccccc12 (centres undefined) | -0.9923 | 0.0217 | 0.0525 |
| O=C(Nc1ccc(-c2nc3cc4ccccc4cc3[nH]2)cc1)c1cccc(Br)c1 | -0.1256 | 0.0231 | 0.0139 |
| CC(C)CCNCC(O)Cn1c2ccccc2c2ccccc21.Cl (centres undefined) | -0.9987 | -0.9941 | -1.0262 |
| O=C(Nc1ccc(F)c(Cl)c1)Nc1ccc(Cl)c(Cl)c1 | -0.0686 | 0.0832 | -0.9478 |
| CC1(c2ccccc2)Nc2ccccc2-c2nc3ccccc3n21 (centres undefined) | -0.9988 | -0.2999 | -0.5975 |
| COc1ccc2sc(N(Cc3cccnc3)C(=O)c3ccc(C#N)cc3)nc2c1 | -0.0469 | -0.1064 | -0.5371 |
| Cc1ccccc1OCCSc1nc2ccc(NC(=O)c3cccs3)cc2s1 | -0.0038 | -0.1829 | -0.9335 |
| COC(=O)c1ccc(Cl)c2c1C1C=CCC1C(c1cccc3ccccc13)N2 (centres undefined) | -0.0285 | 0.053 | 0.0199 |
| CCOC(=O)c1cn(CC)c2cc(N(C)CCc3ccc(OC)c(OC)c3)c(F)cc2c1=O | -0.6378 | -0.8912 | -0.9835 |
| COc1ccc(CCN2C(=O)c3[nH]nc(-c4cc(Cl)c(C)cc4O)c3C2c2ccccc2F)cc1 (centres undefined) | -0.0103 | -0.1352 | -0.023 |
| Cc1ccc(Cl)cc1N1CCN(CCCNC(=O)C2CCN(c3nc4ccccc4[nH]3)CC2)CC1 | -0.0122 | 0.0248 | 0.0403 |
| COc1ccccc1CNC(=O)CCn1c(=O)[nH]c2ccsc2c1=O | -0.0638 | 0.2472 | -0.0445 |
| CCN(Cc1ccccc1)C1CCN(Cc2cc(Br)ccc2O)CC1.O=C(O)C(=O)O | -0.0428 | 0.0515 | 0.0185 |
| O=C(NC1CCN(Cc2ccccc2)CC1)c1cc(-c2ccncc2)nc2ccc(Cl)cc12 | -0.0217 | 0.1716 | -0.2602 |
| COc1ccc(Nc2nc(N/N=C/c3ccc(O)cc3)nc(Nc3ccc([N+](=O)[O-])cc3)n2)cc1 | 0.0149 | 0.2735 | 0.0812 |
| Cc1c(C)n(Cc2ccc(F)cc2)c2ccc(C(=O)NCc3ccco3)cc12 | -0.5565 | -0.1235 | -1.0264 |
| CCCCCCc1cc(O)c2c3c(c(=O)oc2c1)CCC(C)C3 (centres undefined) | -0.0517 | -0.0738 | -0.0677 |
| Cc1ccc2nc(C)cc(Nc3cccc(C(F)(F)F)c3)c2c1.Cl | -0.0219 | -0.0826 | -0.1571 |
| O=C(Nc1ccc(Cl)cc1)N1CCN(c2ccc3nncn3n2)CC1 | 0.0021 | -0.0344 | 0.053 |
